Reference: patent publication US20110319484A1, “NEUROPROTECTIVE COMPOUNDS” (Parque Tecnologico de Ciencias de la Salud, priority 2009, published 2011)

How the values were obtained:
Type in all cases: cell-based
[1] = test system: human neuroblastoma SK-N-MC cells; experiment: Inhibition of ROS production induced by xanthine/xanthine oxidase (H2DCFDA probe, LDH-normalized); details: XXO 10 μM-100 mU/ml, 3 h, at 10 μg/ml, inhibition observed at 10 and 20 μg/ml, read-out: maximum inhibition of ROS production relating to XXO
Protocol: (§1) The assay was performed on human neuroblastoma SK-N-MC cells in culture from the American Type Culture Collection (ATCC) (HTB-10), in all cases strict rules of sterility were followed and the manipulation was performed in class II biological safety cabinets following European standard EN 12469. The cells were maintained in Minimum Essential Medium Eagle (MEM) culture medium supplemented with 1 mM sodium pyruvate, 2 mM L-glutamine, 0.1 mM non-essential amino acids, 0.05 mg/ml gentamicin and 10% fetal bovine serum.
The inhibition by the NST0003 compound [(1S,3R,7S,8S,8aR)-1,2,3,7,8,8a-hexahydro-3,7-dimethyl-8-[2-[(2R,4R)-tetrahydro-4-hydroxy-6-oxo-2H-pyran-2-yl]ethyl-1-naphthalenyl propanoate] on the production of reactive oxygen species (ROS) in the SK-N-MC cells, was analyzed. […]
The cells were incubated (at 37° C. and 5% CO2) with these treatments for 3 h, after which time they were washed with HKRB buffer (20 mM HEPES, 103 mM NaCl, 4.77 mM KCl, 0.5 mM CaCl2, 1.2 mM MgCl2, 1.2 mM KH2PO4, 25 mM […], 15 mM glucose; at pH 7.3) after which the 2′,7′-dichlorodihydrofluorescein diacetate (H2DCFDA) probe was added at 30 μM diluted in HKRB buffer and it was incubated for another 2 hours in the same conditions. The reading of the plate was taken in a fluorometer at the conditions of 485 nm for excitation and 538 nm for emission. […]

[2] = test system: human neuroblastoma SK-N-MC cells; experiment: Protection against neuronal death induced by oxidative stress (XXO), WST-1 test; details: XXO 10 μM-60 mU/ml, 22 h, at 10 μg/ml, protection at 4, 10 and 20 μg/ml
Protocol: To perform this assay, the inhibition caused by the NST0005 compound [(1S,3R,7S,8S,8aR)-1,2,3,7,8,8a-hexahydro-3,7-dimethyl-8-[2-[(2R,4R)-tetrahydro-4-hydroxy-6-oxo-2H-pyran-2-yl]ethyl-1-naphthalenyl 2,2-dimethyl-propanoate] of cell death caused by the treatment with xanthine/xanthine oxidase (XXO) which, as has already been mentioned, generates oxidative damage (produces free radicals such as hydrogen peroxide, superoxide anion, hydroxyl radical) which triggers cell death, was analyzed. These cells [SK-N-MC], not exceeding 15 passages, were seeded on 96-well plates treated for adherent cells with a cell concentration of 5×10^4 cells/well; 3 wells of the plate were seeded for each condition of the assay.
After 24 h of cell incubation at 37° C. and 5% CO2, the cell treatments were performed with 100 μl of total volume for the following conditions: (i), control (culture medium); (ii), xanthine/xanthine oxidase (XXO) [10 μM-60 mU/ml]; and (iii), XXO [10 μM-60 mU/ml] and NST0005 at different concentrations [4, 10, 20 and 40 μg/ml].
The cells were incubated (at 37° C. and 5% CO2) with these treatments for 22 h, after which time the WST-1 reagent (Roche) was added. […] The formazan which is formed can be detected colorimetrically since it has an absorbance of 440 nm. The reading was taken in a plate reader at 440 nm 2 hours after adding the reagent. […]

[3] = test system: human neuroblastoma SK-N-MC cells; experiment: Protection against neuronal death induced by endoplasmic reticulum stress (tunicamycin), WST-1 test; details: tunicamycin 20 μg/ml, 22 h, at 20 μg/ml, protection at 4, 10, 20 and 40 μg/ml
Protocol: as §1, with “To that end, an assay” for “The assay”, “the ATCC (HTB-10);” for “the American Type Culture Collection (ATCC) (HTB-10),”, “in MEM” for “in Minimum Essential Medium Eagle (MEM)”
The inhibition caused by the compound (1S,3R,7S,8S,8aR)-1,2,3,7,8,8a-hexahydro-3,7-dimethyl-8-[2-[(2R,4R)-tetrahydro-4-hydroxy-6-oxo-2H-pyran-2-yl]ethyl-1-naphthalenyl 2,2-dimethylpropanoate (NST0005) of cell death caused by treatment with tunicamycin (Tm), which generates endoplasmic reticulum stress by inhibition of N-glycosylation of proteins, which triggers cell death, was analyzed. […]
The cells were incubated (at 37° C. and 5% CO2) with these treatments for 22 h, after which time the WST-1 reagent (Roche) was added. The WST-1 Test, as has been previously mentioned, is based on the measurement of the metabolic activity; the metabolically active (live) cells reduce tetrazolium salt to formazan by means of the succinate-tetrazolium reductase system (of the mitochondrial respiratory chain) and the formazan which is formed can be detected colorimetrically since it has an absorbance of 440 nm. […]

SMILES | inhibition at 10 µg/mL [1] [%] | maximum reduction of the percentage of cell death relating to death caused by XXO [2] [%] | maximum reduction of the percentage of cell death relating to death caused by Tunicamycin [3] [%]
CCC(=O)O[C@H]1C[C@@H](C)C=C2C=C[C@H](C)[C@H](CC[C@@H]3C[C@@H](O)CC(=O)O3)[C@H]21 [NST0003, (1S,3R,7S,8S,8aR)-1,2,3,7,8,8a-hexahydro-3,7-dimethyl-8-[2-[(2R,4R)-tetrahydro-4-hydroxy-6-oxo-2H-pyran-2-yl]ethyl-1-naphthalenyl propanoate] | 33 |  | 
C[C@H]1C=C2C=C[C@H](C)[C@H](CC[C@@H]3C[C@@H](O)CC(=O)O3)[C@H]2[C@@H](OC(=O)C(C)(C)C)C1 [NST0005] |  | 50 | 38
